pEC50: −log10 of the molar value. Like-named read-outs stand apart in the source and are kept apart here.
Key:
[1] = tested on: HCV genotype 1a (H77 strain) replicon in HUH-7 cells; assay: HCV replicon luciferase reporter assay, genotype 1a; type: cell-based; conditions: Hepatitis C virus, Huh-7, 72 h, HCV genotype 1a replicon luciferase, 3 days incubation, read-out: LE_1a (EC50, range)
How it was run: (§1)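 Replicon inhibition for both genotypes was measured as Renilla luciferase signal (EnduRen, 7.5 μM final, 2 h) after 3-day, 37° C exposure of replicon-bearing HUH-7 cells in 4% FCS DMEM, 0.5% DMSO. The 1b construct carries S1179I; the 1a H77 construct carries P1496L and S2204I. Twenty-point, 3-fold dilutions were fitted four-parametrically for EC50, and CC50 was taken from multiplexed Cell Titer-Blue.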

[2] = tested on: HCV genotype 1b (Con1) replicon in HUH-7 cells; assay: HCV replicon luciferase reporter assay, genotype 1b; type: cell-based; conditions: Hepatitis C virus, Huh-7, 72 h, HCV genotype 1b replicon luciferase, 3 days incubation, read-out: LE_1b (EC50, range)
How it was run: as §1

Structure (SMILES): CC[C@@H]1C[C@H](C)CC/C=C\[C@@H]2C[C@@]2(C(=O)NS(=O)(=O)C2CC2)NC(=O)[C@@H]2C[C@@H](Oc3ncnc4cc(OC)ccc34)CN2C(=O)[C@H]1NC(=O)OC(C)(C)C(F)(F)F [Compound 4189]
- pEC50 ([1]; GETYPE1A): > 8.26
- pEC50 ([2]; GETYPE1B): > 8.26

Structure (SMILES): CC[C@@H]1C[C@H](C)CC/C=C\[C@@H]2C[C@@]2(C(=O)NS(=O)(=O)C2CC2)NC(=O)[C@@H]2C[C@@H](Oc3ncc(OC)c4ccc(Cl)cc34)CN2C(=O)[C@H]1NC(=O)OC(C)(C)C(F)(F)F [Compound 4190]
- pEC50 ([1]; GETYPE1A): > 8.26
- pEC50 ([2]; GETYPE1B): > 8.26

Structure (SMILES): CC[C@@H]1C[C@H](C)CC/C=C\[C@@H]2C[C@@]2(C(=O)NS(=O)(=O)C2(CF)CC2)NC(=O)[C@@H]2C[C@@H](Oc3nccc4cc(OC)c(F)cc34)CN2C(=O)[C@H]1NC(=O)OC(C)(C)C(F)(F)F [Compound 4193]
- pEC50 ([1]; GETYPE1A): > 8.26
- pEC50 ([2]; GETYPE1B): > 8.26

Structure (SMILES): COc1ccc2nc(C(F)(F)F)c(O[C@@H]3C[C@H]4C(=O)N[C@]5(C(=O)NS(=O)(=O)C6(C)CC6)C[C@H]5/C=C\CC[C@@H](C)C[C@@H](C)[C@H](NC(=O)OC(C)(C)C(F)(F)F)C(=O)N4C3)nc2c1 [Compound 4195]
- pEC50 ([1]; GETYPE1A): > 8.26
- pEC50 ([2]; GETYPE1B): > 8.26

Structure (SMILES): CC[C@@H]1C[C@H](C)CC/C=C\[C@@H]2C[C@@]2(C(=O)NS(=O)(=O)C2(C)CC2)NC(=O)[C@@H]2C[C@@H](Oc3ncc(OC)c4cc(OC)ccc34)CN2C(=O)[C@H]1NC(=O)OC(C)(C)C [Compound 4196, tert-butyl (2R,6S,7R,9R,13aS,14aR,16aS,Z)-2-(4,6-dimethoxyisoquinolin-1-yloxy)-7-ethyl-9-methyl-14a-(1-methylcyclopropylsulfonylcarbamoyl)-5,16-dioxo-1,2,3,5,6,7,8,9,10,11,13a,14,14a,15,16,16a-hexadecahydrocyclopropa[e]pyrrolo[1,2-a][1,4]diazacyclopentadecin-6-ylcarbamate]
- pEC50 [1]: > 8.26
- pEC50 [2]: > 8.26

Structure (SMILES): CC[C@@H]1C[C@H](C)CC/C=C\[C@@H]2C[C@@]2(C(=O)NS(=O)(=O)C2(C)CC2)NC(=O)[C@@H]2C[C@@H](Oc3ncc(OC)c4cc(OC)ccc34)CN2C(=O)[C@H]1NC(=O)OC(C)(C)C(F)(F)F [Compound 4197]
- pEC50 ([1]; GETYPE1A): > 8.26
- pEC50 ([2]; GETYPE1B): > 8.26

Structure (SMILES): COc1ccc2c(Cl)cc(O[C@@H]3C[C@H]4C(=O)N[C@]5(C(=O)NS(=O)(=O)C6(CF)CC6)C[C@H]5/C=C\CC[C@@H](C)C[C@@H](C)[C@H](NC(=O)OC(C)(C)C(F)(F)F)C(=O)N4C3)nc2c1 [Compound 4200]
- pEC50 ([1]; GETYPE1A): 6.99 to 8.32
- pEC50 ([2]; GETYPE1B): > 8.26

Structure (SMILES): CC[C@@H]1C[C@H](C)CC/C=C\[C@@H]2C[C@@]2(C(=O)NS(=O)(=O)C2(C)CC2)NC(=O)[C@@H]2C[C@@H](Oc3cnc4ccc(OC)cc4c3)CN2C(=O)[C@H]1NC(=O)OC(C)(C)C [Compound 4201, tert-butyl (2R,6S,7R,9R,13aS,14aR,16aS,Z)-7-ethyl-2-(6-methoxyquinolin-3-yloxy)-9-methyl-14a-(1-methylcyclopropylsulfonylcarbamoyl)-5,16-dioxo-1,2,3,5,6,7,8,9,10,11,13a,14,14a,15,16,16a-hexadecahydrocyclopropa[e]pyrrolo[1,2-a][1,4]diazacyclopentadecin-6-ylcarbamate]
- pEC50 [1]: > 8.26
- pEC50 [2]: > 8.26

Structure (SMILES): CC[C@@H]1C[C@H](C)CC/C=C\[C@@H]2C[C@@]2(C(=O)NS(=O)(=O)C2(CF)CC2)NC(=O)[C@@H]2C[C@@H](Oc3nccc4cc(OC)ccc34)CN2C(=O)[C@H]1NC(=O)OC(C)(C)C [Compound 4204, tert-butyl (2R,6S,7R,9R,13aS,14aR,16aS,Z)-7-ethyl-14a-(1-(fluoromethyl)cyclopropylsulfonylcarbamoyl)-2-(6-methoxyisoquinolin-1-yloxy)-9-methyl-5,16-dioxo-1,2,3,5,6,7,8,9,10,11,13a,14,14a,15,16,16a-hexadecahydrocyclopropa[e]pyrrolo[1,2-a][1,4]diazacyclopentadecin-6-ylcarbamate]
- pEC50 [1]: > 8.26
- pEC50 [2]: > 8.26

Structure (SMILES): CC[C@@H]1C[C@H](C)CC/C=C\[C@@H]2C[C@@]2(C(=O)NS(=O)(=O)C2(CF)CC2)NC(=O)[C@@H]2C[C@@H](Oc3nccc4cc(OC)ccc34)CN2C(=O)[C@H]1NC(=O)OC(C)(C)C(F)(F)F [Compound 4205]
- pEC50 ([1]; GETYPE1A): > 8.26
- pEC50 ([2]; GETYPE1B): > 8.26

Structure (SMILES): CC[C@@H]1C[C@H](C)CC/C=C\[C@@H]2C[C@@]2(C(=O)NS(=O)(=O)C2(C)CC2)NC(=O)[C@@H]2C[C@@H](Oc3ncc(N4CCOCC4)c4cc(OC)ccc34)CN2C(=O)[C@H]1NC(=O)OC(C)(C)C(F)(F)F [Compound 4206]
- pEC50 ([1]; GETYPE1A): > 8.26
- pEC50 ([2]; GETYPE1B): > 8.26

Structure (SMILES): CC[C@@H]1C[C@@H](C)CC/C=C\[C@@H]2C[C@@]2(C(=O)NS(=O)(=O)C2(C)CC2)NC(=O)[C@@H]2C[C@@H](Oc3ncc(N4CCOCC4)c4cc(OC)ccc34)CN2C(=O)[C@H]1NC(=O)OC(C)(C)C(F)(F)F [Compound 4207]
- pEC50 ([1]; GETYPE1A): > 8.26
- pEC50 ([2]; GETYPE1B): > 8.26

Structure (SMILES): CC[C@@H]1C[C@@H](C)CC/C=C\[C@@H]2C[C@@]2(C(=O)NS(=O)(=O)C2(C)CC2)NC(=O)[C@@H]2C[C@@H](Oc3ncc(OC)c4cc(OC)c(F)cc34)CN2C(=O)[C@H]1NC(=O)OC(C)(C)C(F)(F)F [Compound 4208]
- pEC50 ([1]; GETYPE1A): 6.99 to 8.32
- pEC50 ([2]; GETYPE1B): > 8.26

Structure (SMILES): CC[C@@H]1C[C@H](C)CC/C=C\[C@@H]2C[C@@]2(C(=O)NS(=O)(=O)C2(C)CC2)NC(=O)[C@@H]2C[C@@H](Oc3cnc4ccc(OC)cc4n3)CN2C(=O)[C@H]1NC(=O)OC(C)(C)C(F)(F)F [Compound 4219]
- pEC50 ([1]; GETYPE1A): > 8.26
- pEC50 ([2]; GETYPE1B): > 8.26

Structure (SMILES): COc1ccc2nc(O[C@@H]3C[C@H]4C(=O)N[C@]5(C(=O)NS(=O)(=O)C6(CF)CC6)C[C@H]5/C=C\CC[C@@H](C)C[C@@H](C)[C@H](NC(=O)OC(C)(C)C)C(=O)N4C3)c(C)nc2c1 [Compound 4221, tert-butyl (2R,6S,7R,9R,13aS,14aR,16aS,Z)-14a-(1-(fluoromethyl)cyclopropylsulfonylcarbamoyl)-2-(6-methoxy-3-methylquinoxalin-2-yloxy)-7,9-dimethyl-5,16-dioxo-1,2,3,5,6,7,8,9,10,11,13a,14,14a,15,16,16a-hexadecahydrocyclopropa[e]pyrrolo[1,2-a][1,4]diazacyclopentadecin-6-ylcarbamate]
- pEC50 [1]: > 8.26
- pEC50 [2]: > 8.26

Structure (SMILES): COc1ccc2nc(C)c(O[C@@H]3C[C@H]4C(=O)N[C@]5(C(=O)NS(=O)(=O)C6(CF)CC6)C[C@H]5/C=C\CC[C@@H](C)C[C@@H](C)[C@H](NC(=O)OC(C)(C)C)C(=O)N4C3)nc2c1 [Compound 4222, tert-butyl (2R,6S,7R,9R,13aS,14aR,16aS,Z)-14a-(1-(fluoromethyl)cyclopropylsulfonylcarbamoyl)-2-(7-methoxy-3-methylquinoxalin-2-yloxy)-7,9-dimethyl-5,16-dioxo-1,2,3,5,6,7,8,9,10,11,13a,14,14a,15,16,16a-hexadecahydrocyclopropa[e]pyrrolo[1,2-a][1,4]diazacyclopentadecin-6-ylcarbamate]
- pEC50 [1]: > 8.26
- pEC50 [2]: > 8.26

Structure (SMILES): CC[C@@H]1C[C@H](C)CC/C=C\[C@@H]2C[C@@]2(C(=O)NS(=O)(=O)C2(C)CC2)NC(=O)[C@@H]2C[C@@H](Oc3ncc(OC4CC4)c4ccccc34)CN2C(=O)[C@H]1NC(=O)OC(C)(C)C(F)(F)F [Compound 4223]
- pEC50 ([1]; GETYPE1A): > 8.26
- pEC50 ([2]; GETYPE1B): > 8.26

Structure (SMILES): COc1cnc(O[C@@H]2C[C@H]3C(=O)N[C@]4(C(=O)NS(=O)(=O)C5(F)CC5)C[C@H]4/C=C\CC[C@@H](C)C[C@@H](C)[C@H](NC(=O)OC(C)(C)C)C(=O)N3C2)c2ccccc12 [Compound 4224]
- pEC50 [1]: > 8.26
- pEC50 [2]: > 8.26

Structure (SMILES): C[C@@H]1CC/C=C\[C@@H]2C[C@@]2(C(=O)NS(=O)(=O)C2(F)CC2)NC(=O)[C@@H]2C[C@@H](Oc3ncc(OC4CC4)c4ccccc34)CN2C(=O)[C@@H](NC(=O)OC(C)(C)C)[C@H](C)C1 [Compound 4225, tert-butyl (2R,6S,7R,9R,13aS,14aR,16aS,Z)-2-(4-cyclopropoxyisoquinolin-1-yloxy)-14a-(1-fluorocyclopropylsulfonylcarbamoyl)-7,9-dimethyl-5,16-dioxo-1,2,3,5,6,7,8,9,10,11,13a,14,14a,15,16,16a-hexadecahydrocyclopropa[e]pyrrolo[1,2-a][1,4]diazacyclopentadecin-6-ylcarbamate]
- pEC50 [1]: > 8.26
- pEC50 [2]: > 8.26

Structure (SMILES): CCOc1cnc(O[C@@H]2C[C@H]3C(=O)N[C@]4(C(=O)NS(=O)(=O)C5(C)CC5)C[C@H]4/C=C\CC[C@@H](C)C[C@@H](CC)[C@H](NC(=O)OC(C)(C)C(F)(F)F)C(=O)N3C2)c2ccc(OC)cc12 [Compound 4227]
- pEC50 ([1]; GETYPE1A): > 8.26
- pEC50 ([2]; GETYPE1B): > 8.26

Structure (SMILES): COc1ccc2c(O[C@@H]3C[C@H]4C(=O)N[C@]5(C(=O)NS(=O)(=O)C6(C)CC6)C[C@H]5/C=C\CC[C@@H](C)C[C@@H](C)[C@H](N)C(=O)N4C3)ncc(OC)c2c1 [Compound 4228, (2R,6S,7R,9R,13aS,14aR,16aS,Z)-6-amino-2-(4,6-dimethoxyisoquinolin-1-yloxy)-7,9-dimethyl-N-(1-methylcyclopropylsulfonyl)-5,16-dioxo-1,2,3,5,6,7,8,9,10,11,13a,14,14a,15,16,16a-hexadecahydrocyclopropa[e]pyrrolo[1,2-a][1,4]diazacyclopentadecine-14a-carboxamide]
- pEC50 [1]: > 8.26
- pEC50 [2]: > 8.26

Structure (SMILES): COc1ccc2c(O[C@@H]3C[C@H]4C(=O)N[C@]5(C(=O)NS(=O)(=O)C6CC6)C[C@H]5/C=C\CC[C@H](C)C[C@@H](C)[C@H](NC(=O)OC(C)(C)C(F)(F)F)C(=O)N4C3)ncc(OC)c2c1 [Compound 4229]
- pEC50 ([1]; GETYPE1A): > 8.26
- pEC50 ([2]; GETYPE1B): > 8.26

Structure (SMILES): CCOc1cnc(O[C@@H]2C[C@H]3C(=O)N[C@]4(C(=O)NS(=O)(=O)C5(C)CC5)C[C@H]4/C=C\CC[C@H](C)C[C@@H](C)[C@H](NC(=O)OC(C)(C)C(F)(F)F)C(=O)N3C2)c2ccc(OC)cc12 [Compound 4230]
- pEC50 ([1]; GETYPE1A): > 8.26
- pEC50 ([2]; GETYPE1B): > 8.26

Source: patent US9499550B2 (BRISTOL-MYERS SQUIBB COMPANY, priority 2012, dated 2016)
